Data reported in article PMC4388511 (PLoS ONE, 2015).
Where two headings read alike, the source gives them in different places.

Columns and labels:
[1] = target: T1, serotonin 5-HT2C receptor (Homo sapiens, UniProt P28335); test: facilitation of morphine-induced MOP-YFP endocytosis in HEK293 cells co-expressing 5-HT2C, at […]; assay type: cell-based
T1 construct: gene HTR2C; c-myc-5-HT2C-Cerulean

[2] = target: T1, serotonin 5-HT2C receptor; test: as above; assay type: cell-based; remark: listed apart in the source

T1 sequence (P28335 33-458): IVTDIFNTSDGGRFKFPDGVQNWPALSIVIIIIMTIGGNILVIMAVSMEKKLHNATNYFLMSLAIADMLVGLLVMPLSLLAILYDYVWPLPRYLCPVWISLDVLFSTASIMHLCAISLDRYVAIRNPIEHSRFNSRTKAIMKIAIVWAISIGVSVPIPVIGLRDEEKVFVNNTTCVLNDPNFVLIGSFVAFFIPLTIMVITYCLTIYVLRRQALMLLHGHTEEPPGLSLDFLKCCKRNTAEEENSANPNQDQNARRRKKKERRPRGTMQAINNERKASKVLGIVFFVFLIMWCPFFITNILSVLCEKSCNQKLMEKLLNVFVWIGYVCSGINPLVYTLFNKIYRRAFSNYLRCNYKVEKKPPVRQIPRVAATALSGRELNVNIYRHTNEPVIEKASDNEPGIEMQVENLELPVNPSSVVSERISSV
T1 sequence (P35372 whole entry partner): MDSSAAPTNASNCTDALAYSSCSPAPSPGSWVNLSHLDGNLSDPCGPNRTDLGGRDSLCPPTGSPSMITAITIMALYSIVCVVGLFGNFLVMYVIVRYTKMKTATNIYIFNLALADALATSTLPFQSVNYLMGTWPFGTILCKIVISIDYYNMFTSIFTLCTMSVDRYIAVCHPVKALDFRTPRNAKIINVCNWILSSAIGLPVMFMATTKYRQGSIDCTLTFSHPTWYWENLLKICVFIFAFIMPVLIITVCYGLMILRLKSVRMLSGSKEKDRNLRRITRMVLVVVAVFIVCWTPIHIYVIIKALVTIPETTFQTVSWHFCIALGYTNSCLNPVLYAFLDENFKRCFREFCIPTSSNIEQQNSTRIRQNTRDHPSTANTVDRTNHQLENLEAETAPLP

SMILES | Emax (no. vesicles/cell) [1] | Emax (no. vesicles/cell) [2]
COc1cc(CC(C)N)c(OC)cc1I (racemic) [DOI] | 8.18 ± 1.31 vesicles/cell (Emax, with morphine) | –
O=C1Nc2cc(Cl)c(Cl)cc2N2CCNCC12 (centres unmarked) [WAY161503] | – | 9.08 ± 1.88 vesicles/cell (Emax, with morphine)
